According to US20230321044A1, “TREATMENT OR PREVENTION METHOD FOR CHRONIC HEART FAILURE” (Japan Tobacco Inc., priority 2020, published 2023):
“Also recorded” adds a separate entry of the source.

How the values were obtained:
[1] = test system: post-myocardial infarction heart failure rats; assay: Assessment of cardiac function in rats with post-myocardial infarction heart failure (Test Example 1); type: in vivo, rat
Method: Male SD rats (8-week old, Japan SLC, Inc.) were anesthetized with pentobarbital, then, under controlled mechanical ventilation, underwent thoracotomy and permanent ligation of the left anterior descending coronary artery to prepare rats with post-myocardial infarction heart failure. A sham-operated group was prepared by undergoing only thoracotomy in the same way to expose the heart. Two weeks later, vehicle (0.5% methylcellulose solution) or Compound 1 (3 mg/kg group or Ascending Dose group) was orally administered once daily to the group of post-myocardial infarction heart failure rat, and the vehicle was orally administered once daily to the sham-operated group. The dose for the Ascending Dose group was started with 3 mg/kg, increased to 6 mg/kg after two weeks and to 8 mg/kg after two more weeks, and maintained at 8 mg/kg thereafter. After eight weeks of administration, an ultrasonograph (Aplio 300, Toshiba Medical Systems Corporation) was used to measure the left ventricular ejection fraction, and Catheter-tipped micromanometer (Model SPR-320, Millar Inc.) was inserted into the left ventricle via the left carotid artery to measure the left ventricular end-diastolic pressure. For statistical analysis, Aspin-Welch t test was conducted between the sham-operated vehicle-administered group and the vehicle-administered group of post-myocardial infarction heart failure rats. Steel’s multiple comparison test was conducted for the Compound 1 group to the vehicle group of post-myocardial infarction heart failure rats. The significance level was two-sided 5%. Form the results, it was confirmed that the vehicle-administered group of post-myocardial infarction heart failure rats developed HFrEF because the left ventricular ejection fraction was decreased and the left ventricular end-diastolic pressure was increased, compared with the sham-operated vehicle-administered group.

[2] = test system: hypertensive heart failure rats; assay: Assessment of cardiac function in rats with hypertensive heart failure (Test Example 2); type: in vivo, rat
Method: Male DIS/Eis (Dahl-Iwai S) rats (Dahl rats) (7-week old, Japan SLC, Inc.) were fed a high-salt diet (MF 8% sodium chloride-adjusted feed, Oriental Yeast Co., ltd.) to prepare hypertensive heart failure rats. Normal controls were fed a normal diet (CRF-1 solid, Oriental Yeast Co., ltd.). Three weeks later, after confirmation of the development of pathological condition (hypertension or cardiomegaly), vehicle (0.5% methylcellulose solution) or Compound 1 (3 mg/kg group or Ascending Dose group) was orally administered to the hypertensive heart failure rat group once daily, and the vehicle was orally administered once daily to the normal control group. […] After five weeks of administration, an ultrasonograph (Aplio 300, Toshiba Medical Systems Corporation) was used to measure the left ventricular ejection fraction, and a non-invasive automated blood pressure measuring device (BP-98A, Softlon Co.,Ltd.) was used to measure the systolic blood pressure. After six weeks of administration, ADVantage P-V catheter (Model FTH-1918B-E318, Transonic Scisense Inc.) was inserted into the left ventricle from the apex to measure the left ventricular end-diastolic pressure. […] For statistical analysis, Student test or Aspin-Welch t test was conducted between the vehicle-administered normal control group and the vehicle-administered group of hypertensive heart failure rats. Dunnett’s multiple test was conducted for the Compound 1 group to the vehicle group of hypertensive heart failure rats. The significance level was two-sided 5%. Form the results, it was confirmed that the hypertensive heart failure rats developed HFpEF because the EDPVRβ and left ventricular end-diastolic pressure were increased whereas the left ventricular ejection fraction was not decreased, compared with the normal control group. […] Compound 1 also had no effect on the urine volume in the hypertensive heart failure rats.

## C[C@H]1C(=O)NC[C@@H]1C(=O)Nc1cc(-c2cc(F)cc(OC(C)(C)C)c2)n(C(F)(F)F)n1 [Compound 1]
[1]; 3 mg/kg group, oral once daily, eight weeks, vs vehicle, FIG. 2
  left ventricular ejection fraction: higher value
[1]; Ascending Dose group (3, then 6, then 8 mg/kg), oral once daily, eight weeks, vs vehicle, p < 0.05, FIG. 2
  left ventricular ejection fraction: significantly increased
[1]; dose groups not distinguished (3 mg/kg or Ascending Dose), oral once daily, eight weeks
  left ventricular ejection fraction: increased
[1]; post-myocardial infarction heart failure rats, oral once daily, eight weeks, in comparison with the vehicle, FIG. 1
  left ventricular end-diastolic pressure: lower value; also recorded: suppressed
[1]; post-myocardial infarction heart failure rats, overall conclusion
  HFrEF improving effect: improved HFrEF; also recorded: has an HFrEF improving effect
[2]; 3 mg/kg group, oral once daily, six weeks, vs vehicle, FIG. 4
  EDPVRβ (end-diastolic pressure-volume relationship β): lower value
[2]; Ascending Dose group (3, then 6, then 8 mg/kg), oral once daily, six weeks, vs vehicle, p < 0.05, FIG. 4
  EDPVRβ (end-diastolic pressure-volume relationship β): significantly reduced
[2]; dose groups not distinguished, oral once daily, six weeks
  EDPVRβ (end-diastolic pressure-volume relationship β): reduced
[2]; hypertensive heart failure (Dahl) rats, oral once daily, six weeks, vs vehicle, p < 0.05 and p < 0.01, FIG. 3
  left ventricular end-diastolic pressure: significantly reduced
[2]; hypertensive heart failure rats, after five weeks of administration, FIG. 6
  systolic blood pressure: had no effect
[2]; hypertensive heart failure rats, in comparison with the vehicle, FIG. 7
  urine volume: did not affect; also recorded: had no effect
[2]; hypertensive heart failure rats, overall conclusion
  HFpEF improving effect: has an HFpEF improving effect
